Source: US6737383B1, “Herbicidal oxadiazolidines” (priority 1999, dated 2004)

Experiments:
[1] = tested on: blackgrass; assay: Test B pre/postemergence blackgrass; assay type: in vivo, Alopecurus myosuroides
Outline: (§1)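 Test chemicals in a non-phytotoxic solvent mixture with surfactant were sprayed preemergence onto planted seeds and postemergence onto plants 2 to 18 cm tall (1- to 4-leaf stage). After twelve to sixteen days in a greenhouse, injury was visually rated against untreated controls from 0 (no effect) to 10 (complete control).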

[2] = tested on: velvetleaf; assay: Test B pre/postemergence velvetleaf; assay type: in vivo, Abutilon theophrasti; conditions: for Plant response rating, Velvetleaf: Rate 250 g/ha
Outline: as §1

[3] = tested on: rape; assay: Test B pre/postemergence rape; assay type: in vivo, Brassica napus
Outline: as §1

[4] = tested on: bedstraw; assay: Test B pre/postemergence bedstraw; assay type: in vivo, Galium aparine
Outline: as §1

[5] = tested on: cocklebur; assay: Test B pre/postemergence cocklebur; assay type: in vivo, Xanthium strumarium
Outline: as §1

[6] = tested on: crabgrass; assay: Test B pre/postemergence crabgrass; assay type: in vivo, Digitaria sanguinalis
Outline: as §1

[7] = tested on: wild oat; assay: Test B pre/postemergence wild oat; assay type: in vivo, Avena fatua; conditions: for Plant response rating, Wild oats: Rate 250 g/ha
Outline: as §1

[8] = tested on: rice; assay: Test B flood test rice; assay type: in vivo, Oryza sativa
Outline: (§2)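 Plants were grown to the 2-leaf stage before treatment with test chemical, then held in a greenhouse for twelve to sixteen days. Injury was visually rated against untreated controls on a 0–10 scale, where 0 is no effect and 10 is complete control.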

[9] = tested on: purple nutsedge; assay: Test B pre/postemergence purple nutsedge; assay type: in vivo, Cyperus rotundus
Outline: as §1

[10] = tested on: surinam grass; assay: Test B pre/postemergence surinam grass; assay type: in vivo, Brachiaria decumbens
Outline: as §1

[11] = tested on: corn; assay: Test B pre/postemergence corn; assay type: in vivo, Zea mays
Outline: as §1

[12] = tested on: smallflower flatsedge; assay: Test B flood test smallflower flatsedge; assay type: in vivo, Cyperus difformis
Outline: as §2

[13] = tested on: sugar beet; assay: Test B pre/postemergence sugar beet; assay type: in vivo, Beta vulgaris; conditions: for Plant response rating, Sugarbeets: Rate 250 g/ha
Outline: as §1

[14] = tested on: wheat; assay: Test B pre/postemergence wheat; assay type: in vivo, Triticum aestivum; conditions: for Plant response rating, Wheat: Rate 250 g/ha
Outline: as §1

[15] = tested on: soybean; assay: Test B pre/postemergence soybean; assay type: in vivo, Glycine max
Outline: as §1

[16] = tested on: duck salad; assay: Test B flood test duck salad; assay type: in vivo, Heteranthera limosa
Outline: as §2

[17] = tested on: bamyardgrass; assay: Test B flood test barnyardgrass; assay type: in vivo, Echinochloa crus-galli
Outline: as §2

[18] = Postemergence, Rate 125 g/ha, scale of 0 to 10 where 0 is no effect and 10 is complete control
[19] = Postemergence, Rate 250 g/ha, scale 0 to 10, 0 no effect, 10 complete control
[20] = Preemergence, Rate 62 g/ha, scale 0 to 10 (0 no effect, 10 complete control)
[21] = Preemergence, Rate 125 g/ha, scale 0 to 10 (0 no effect, 10 complete control)
[22] = Preemergence, Rate 250 g/ha, scale of 0 to 10 where 0 is no effect and 10 is complete control
[23] = Preemergence, Rate 500 g/ha, scale 0 to 10 (0 no effect, 10 complete control)
[24] = Rate 62 g/ha, Postemergence, scale of 0 to 10 where 0 is no effect and 10 is complete control
[25] = Rate 500 g/ha, Postemergence, scale 0 to 10, 0 no effect, 10 complete control
[26] = Preemergence, Rate 125 g/ha, 0 is no effect, 10 is complete control
[27] = Preemergence, scale of 0 to 10 where 0 is no effect and 10 is complete control
[28] = Postemergence, scale 0 to 10, 0 is no effect, 10 is complete control
[29] = Rate 250 g/ha, headed Pre-emergence (flood test species), scale 0 to 10 (0 no effect, 10 complete control)
[30] = Rate 500 g/ha, headed Pre-emergence (flood test species), scale 0 to 10 (0 no effect, 10 complete control)
[31] = Rate 1000 g/ha, Pre-emergence (as headed), scale 0 to 10
[32] = Rate 2000 g/ha, Pre-emergence (as headed), scale 0 to 10

SMILES: CC(C)N(C(=O)n1oc(=O)n(Cc2cccs2)c1=O)c1ccccc1 [Compound 103]
- Blackgrass plant response rating [1, 18]: 1
- Blackgrass plant response rating [1, 19]: 4
- Blackgrass plant response rating [1, 20]: 0
- Plant response rating, Blackgrass [1, 21]: 0
- Plant response rating, Blackgrass [1, 22]: 3
- Blackgrass plant response rating [1, 23]: 5
- Blackgrass plant response rating [1, 24]: 0
- Blackgrass plant response rating [1, 25]: 4
- Velvetleaf plant response rating [2, 18]: 0
- Velvetleaf plant response rating [2, 20]: 0
- Velvetleaf plant response rating (0 to 10 scale) [2, 26]: 0
- Plant response rating, Velvetleaf [2, 27]: 3
- Velvetleaf plant response rating [2, 23]: 3
- Velvetleaf plant response rating [2, 24]: 0
- Plant response rating, Velvetleaf [2, 28]: 1
- Velvetleaf plant response rating [2, 25]: 4
- Rape plant response rating [3, 18]: 0
- Rape plant response rating [3, 19]: 1
- Rape plant response rating [3, 20]: 0
- Plant response rating, Rape [3, 21]: 0
- Plant response rating, Rape [3, 22]: 0
- Rape plant response rating [3, 23]: 0
- Rape plant response rating [3, 24]: 0
- Rape plant response rating [3, 25]: 3
- Bedstraw plant response rating [4, 19]: 0
- Bedstraw plant response rating [4, 20]: 0
- Plant response rating, Bedstraw [4, 21]: 0
- Plant response rating, Bedstraw [4, 22]: 0
- Bedstraw plant response rating [4, 23]: 0
- Cocklebur plant response rating [5, 18]: 0
- Cocklebur plant response rating [5, 19]: 0
- Cocklebur plant response rating [5, 20]: 0
- Plant response rating, Cocklebur [5, 21]: 0
- Cocklebur plant response rating [5, 23]: 0
- Cocklebur plant response rating [5, 24]: 0
- Cocklebur plant response rating [5, 25]: 0
- Crabgrass plant response rating [6, 18]: 4
- Crabgrass plant response rating [6, 19]: 6
- Crabgrass plant response rating [6, 20]: 2
- Plant response rating, Crabgrass [6, 21]: 6
- Plant response rating, Crabgrass [6, 22]: 9
- Crabgrass plant response rating [6, 24]: 0
- Crabgrass plant response rating [6, 25]: 9
- Wild oats plant response rating [7, 18]: 0
- Wild oats plant response rating [7, 20]: 0
- Wild oats plant response rating (0 to 10 scale) [7, 26]: 0
- Plant response rating, Wild oats [7, 27]: 3
- Wild oats plant response rating [7, 23]: 6
- Wild oats plant response rating [7, 24]: 0
- Plant response rating, Wild oats [7, 28]: 0
- Wild oats plant response rating [7, 25]: 0
- Rice plant response rating [8, 29]: 0
- Plant response rating, Rice [8, 30]: 0
- Rice plant response rating [8, 31]: 0
- Rice plant response rating [8, 32]: 0
- Nutsedge plant response rating [9, 18]: 0
- Nutsedge plant response rating [9, 19]: 0
- Nutsedge plant response rating [9, 20]: 0
- Plant response rating, Nutsedge [9, 21]: 0
- Plant response rating, Nutsedge [9, 22]: 0
- Nutsedge plant response rating [9, 23]: 0
- Nutsedge plant response rating [9, 24]: 0
- Nutsedge plant response rating [9, 25]: 0
- B. signalgrass plant response rating ([10]; Postemergence, Rate 62 g/ha, scale 0 to 10, 0 is no effect, 10 is complete control): 0
- B. signalgrass plant response rating [10, 19]: 0
- B. signalgrass plant response rating [10, 20]: 1
- Plant response rating, B. signalgrass [10, 21]: 5
- Plant response rating, B. signalgrass [10, 22]: 7
- B. signalgrass plant response rating [10, 23]: 7
- B. signalgrass plant response rating ([10]; Rate 125 g/ha, Postemergence, scale 0 to 10, 0 no effect, 10 complete control): 0
- B. signalgrass plant response rating ([10]; Rate 500 g/ha, Postemergence, scale of 0 to 10 where 0 is no effect and 10 is complete control): 2
- Corn plant response rating [11, 18]: 0
- Corn plant response rating [11, 19]: 0
- Corn plant response rating [11, 20]: 0
- Plant response rating, Corn [11, 21]: 0
- Plant response rating, Corn [11, 22]: 0
- Corn plant response rating [11, 23]: 0
- Corn plant response rating [11, 24]: 0
- Corn plant response rating [11, 25]: 2
- S. Flatsedge plant response rating ([12]; Pre-emergence, Rate 1000 g/ha, scale 0 to 10 (0 no effect, 10 complete control)): 0
- S. Flatsedge plant response rating [12, 29]: 0
- Plant response rating, S. Flatsedge [12, 30]: 0
- S. Flatsedge plant response rating [12, 32]: 0
- Sugarbeets plant response rating [13, 18]: 2
- Sugarbeets plant response rating [13, 20]: 0
- Sugarbeets plant response rating (0 to 10 scale) [13, 26]: 0
- Plant response rating, Sugarbeets [13, 27]: 0
- Sugarbeets plant response rating [13, 23]: 4
- Sugarbeets plant response rating [13, 24]: 1
- Plant response rating, Sugarbeets [13, 28]: 2
- Sugarbeets plant response rating [13, 25]: 3
- Wheat plant response rating [14, 18]: 0
- Wheat plant response rating [14, 20]: 0
- Wheat plant response rating (0 to 10 scale) [14, 26]: 0
- Plant response rating, Wheat [14, 27]: 0
- Wheat plant response rating [14, 23]: 2
- Wheat plant response rating [14, 24]: 0
- Plant response rating, Wheat [14, 28]: 0
- Wheat plant response rating [14, 25]: 0
- Soybean plant response rating [15, 18]: 4
- Soybean plant response rating [15, 20]: 0
- Plant response rating, Soybean [15, 21]: 0
- Plant response rating, Soybean [15, 22]: 0
- Soybean plant response rating [15, 23]: 0
- Soybean plant response rating [15, 24]: 4
- Plant response rating, Soybean ([15]; Rate 250 g/ha, Postemergence, scale 0 to 10, 0 is no effect, 10 is complete control): 4
- Soybean plant response rating [15, 25]: 6
- Ducksalad plant response rating [16, 29]: 0
- Plant response rating, Ducksalad [16, 30]: 0
- Ducksalad plant response rating [16, 31]: 0
- Ducksalad plant response rating [16, 32]: 0
- Barnyardgrass plant response rating [17, 29]: 0
- Plant response rating, Barnyardgrass [17, 30]: 0
- Barnyardgrass plant response rating [17, 31]: 0
- Barnyardgrass plant response rating ([17]; Rate 2000 g/ha, Pre-emergence (as headed), scale 0 to 10, 0 no effect, 10 complete control): 0
